Here are results for one compound from paper PMC3899525 (Cell, 2013).

The target of the assay is T1, Gr21a/Gr63a heteromeric CO2 receptor (ab1C neuron) (Drosophila melanogaster, UniProt Q9VPT1+Q9VZL7).
T1 sequence (Q9VPT1 1-447): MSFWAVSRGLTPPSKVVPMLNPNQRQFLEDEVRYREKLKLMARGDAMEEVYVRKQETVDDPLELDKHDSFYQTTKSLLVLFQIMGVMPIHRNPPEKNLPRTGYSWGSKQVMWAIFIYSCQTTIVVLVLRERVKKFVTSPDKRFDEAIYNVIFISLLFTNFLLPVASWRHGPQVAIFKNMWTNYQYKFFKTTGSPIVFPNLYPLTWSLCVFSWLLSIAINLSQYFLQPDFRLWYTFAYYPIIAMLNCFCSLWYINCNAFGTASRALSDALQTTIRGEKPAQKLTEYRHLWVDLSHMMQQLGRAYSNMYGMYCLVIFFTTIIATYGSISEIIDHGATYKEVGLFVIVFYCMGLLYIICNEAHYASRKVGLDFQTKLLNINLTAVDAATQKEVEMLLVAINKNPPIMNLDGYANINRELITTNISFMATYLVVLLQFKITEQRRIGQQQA
T1 sequence (Q9VZL7 1-512): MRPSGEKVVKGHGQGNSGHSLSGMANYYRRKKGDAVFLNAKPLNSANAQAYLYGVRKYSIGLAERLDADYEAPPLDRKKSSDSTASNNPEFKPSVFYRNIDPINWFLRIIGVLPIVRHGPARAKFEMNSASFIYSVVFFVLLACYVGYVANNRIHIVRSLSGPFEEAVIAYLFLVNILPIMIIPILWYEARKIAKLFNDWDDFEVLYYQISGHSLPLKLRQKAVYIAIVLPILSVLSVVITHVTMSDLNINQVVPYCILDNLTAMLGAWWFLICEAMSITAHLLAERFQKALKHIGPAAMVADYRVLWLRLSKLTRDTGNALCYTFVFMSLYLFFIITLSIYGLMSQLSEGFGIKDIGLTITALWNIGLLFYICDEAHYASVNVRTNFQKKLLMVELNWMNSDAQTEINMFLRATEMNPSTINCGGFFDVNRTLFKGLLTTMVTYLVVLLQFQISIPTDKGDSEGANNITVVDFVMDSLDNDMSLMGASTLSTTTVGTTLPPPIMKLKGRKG
Nature of the assay: single-sensillum recording of ab1C neuron. The class given is cell-based. As to conditions: inhibitor; orco mutant flies; native neuron in vivo.

`CCOC(=O)C(C)=O` [ethyl pyruvate]: the “single-sensillum recording of ab1C neuron” value was “the cpA inhibitor ethyl pyruvate also effectively inhibited the ab1C neuron”.
